Measured values from patent US20250179049A1, “SALTS OF HETEROCYCLIC INHIBITORS OF MONOCARBOXYLATE TRANSPORTER 4 FOR THE TREATMENT OF DISEASE” (Vettore, LLC, priority 2022, published 2025).
Where two headings read alike, the source gives them in different places.

Experiments:
[1] = Rat pharmacokinetics, oral gavage; assay type: in vivo, Sprague-Dawley rats; design: AUClast/D: unit not given here; details: for MRT inf: read-out: MRTInf—obs; for Tmax: read-out: Tmax
Experimental: Groups, Dosing, and Collection. […] Three rats per group were perorally administered 20, 60, or 200 mg Compound 1 free acid or 25, 75, or 250 mg in 0.5% methylcellulose in Saline for a final concentration of 2, 6, or 20 mg/mL Compound 1 free acid or 2.5, 7.5, or […]. Plasma was collected at 5 min, 15 min, 30 min, 1 hour, 2 hour, 4 hour, 6 hour, 8 hour, and 24 hour post dose via jugular vein.
Stock and Dose Prep. Stock solutions were prepared by dissolving 2.47 mg of Compound 1 (free acid) in 2.470 mL DMSO with vortexing to obtain 1 mg/mL solution of Compound 1 (free acid), or 2.09 mg of Compound 1 (Tris salt) in […] DMSO with vortexing to obtain 1 mg/mL solution of Compound 1 (Tris salt). Dosing solutions were prepared by vortexing/sonicating the following solids in solvent:
LC MS-MS Analysis. Liquid Chromatography with tandem mass spectrometry was used to determine plasma concentrations of Compound 1 Free Acid and Compound 1 Tris Salt in plasma samples collected at prescribed time points.
Appropriate serial concentrations of working solutions were achieved by diluting stock solution of analyte with 50% acetonitrile in water solution. Five μL of working solutions (10, 20, 50, 100, 500, 1000, 5000, 8000, 10000 ng/mL) were added to 50 μL of the blank male SD Rat plasma to achieve calibration standards of 1˜1000 ng/ml (1, 2, 5, 10, 50, 100, 500, 800, 1000 ng/mL) in a total volume of 55 μL. Five quality control (QC) samples at 2 ng/mL, 5 ng/mL, 10 ng/mL, 50 ng/mL and 800 ng/mL for plasma were prepared independently of those used for the calibration curves. These QC samples were prepared on the day of analysis in the same way as calibration standards. 55 μL standards, 55 μL QC samples and 55 μL unknown samples (50 μL plasma/blood with 5 μL blank solution) were added to 200 μL of methanol containing internal standard (dexamethasone) mixture for precipitating protein respectively, and vortexed for 30 seconds. After centrifugation at 4° C. and 4000 rpm for 15 minutes. The supernatant was diluted with water with a ratio of 1:2. 2 μL of the supernatant was injected into the LC/MS/MS system for quantitative analysis.
Instrumentation included HALO 90A C18 2.7 μm 2.1×50 mm HPLC column, a Prominence degasser DGU-20A5R(C), liquid chromatograph Shimadzu LC-30AD with communications bus module CBM-20A and Auto SIL-20AC HT; and an AB Sciex Triple Quad 5500 LC/MS/MS instrument.

[2] = 28-day repeat-dose toxicity study in rats; assay type: in vivo; details: Sprague Dawley, rat; for NOAEL at 28 days: in vivo; for AUC(0-t) / Cmax: plasma; for AUC(0-t): read-out: AUC0-24 at NOAEL; for Cmax: read-out: Cmax at NOAEL
Experimental: Compound 1 was administered to Sprague Dawley rats by oral gavage at doses of 25, 75, and 250 mg/kg/day (females) and 40, 120, and 400 mg/kg/day (males) for 28 days. Compound 1-related mortality occurred in 8 of the 15 toxicity males administered 400 mg/kg/day beginning on Day 8 through 24. […] Target tissues included bone marrow, spleen, thymus, liver, lymph nodes, epididymides, seminal vesicles, prostate, testes, uterus, and ovaries.
(§1) Compound 1 tris salt was evaluated for safety in 7- and 28-day studies in rats and dogs. […] The NOAELs for this rat study were 120 mg/kg/day for males and 75 mg/kg/day for females. […] The NOAEL determined in the 28-day dog GLP study was 150 mg/kg/day. These correspond to human equivalent doses (HEDs) of: • Rat: 75 mg/kg×0.16=12 mg/kg • Dog: 150 mg/kg×0.54=81 mg/kg

in vivo = test: in vivo; design: species or system beagle dogs; details: both sexes, beagle, dog
Experimental: Compound 1 was administered to beagle dogs by oral gavage in a range finding study at doses of 30, 79, 240, or 790 mg/kg. […] Compound 1 was administered at doses of 10, 50, and 150 mg/kg/day in the pivotal repeat dose toxicity studies for 28 days.
as §1

[3] = Sprague-Dawley, plasma, rat PO 20 mg/kg, female, mean
[4] = Sprague-Dawley, plasma, rat PO 20 mg/kg, male, mean
[5] = Sprague-Dawley, plasma, rat PO 60 mg/kg, female, mean
[6] = Sprague-Dawley, plasma, rat PO 60 mg/kg, male, mean
[7] = Sprague-Dawley, plasma, rat PO 200 mg/kg, female, mean
[8] = Sprague-Dawley, plasma, rat PO 200 mg/kg, male, mean

With `CC(C)(OCc1cc(-c2cccc(OC3CCC3)c2)n(-c2ccccc2N2CCC2)n1)C(=O)O` [Compound 1, 2-((1-(2-(azetidin-1-yl)phenyl)-5-(3-cyclobutoxyphenyl)-1H-pyrazol-3-yl)methoxy)-2-methylpropanoic acid] the AUC(0-inf) [1, 3] was 991 µg·h/mL, the half-life [1, 3] was 7 h and the MRT inf [1, 3] was 10 h. The AUC(0-inf) [1, 4] was 168 µg·h/mL, the half-life [1, 4] was 3.27 h and the MRT inf [1, 4] was 4.54 h. For the same compound, the AUC(0-inf) [1, 5] was 1770 µg·h/mL, the half-life [1, 5] was 9.1 h and the MRT inf [1, 5] was 13.6 h. For the same compound, the AUC(0-inf) [1, 6] was 447 µg·h/mL, the half-life [1, 6] was 2.92 h and the MRT inf [1, 6] was 5.33 h. It also gave an AUC(0-inf) [1, 7] of 3820 µg·h/mL, a half-life [1, 7] of 10.4 h and an MRT inf [1, 7] of 15.9 h. For the same compound, the AUC(0-inf) [1, 8] was 1110 µg·h/mL, the half-life [1, 8] was 3.14 h and the MRT inf [1, 8] was 6.01 h. The AUC(0-t) ([1]; female, Sprague-Dawley, rat, plasma, po, 20 mg/kg, rat PO 20 mg/kg, female, mean, read-out: AUClast) was 885 µg·h/mL, the Cmax ([1]; female, Sprague-Dawley, rat, plasma, po, 20 mg/kg, rat PO 20 mg/kg, female, mean, read-out: Cmax) was 78.9 µg/mL and the Tmax ([1]; female, Sprague-Dawley, rat, plasma, po, 20 mg/kg, rat PO 20 mg/kg, female, mean) was 2.67 h. It also gave an AUC(0-t) ([1]; female, Sprague-Dawley, rat, plasma, po, 20 mg/kg, rat, Female, PO/20 mg/kg, Mean ± SD, read-out: AUC0-24) of 885 µg·h/mL, a Cmax ([1]; female, Sprague-Dawley, rat, plasma, po, 20 mg/kg, rat, Female, PO/20 mg/kg, Mean ± SD, read-out: Cmax) of 78.8 µg/mL and an AUC(0-t) ([1]; female, Sprague-Dawley, rat, plasma, po, 60 mg/kg, rat PO 60 mg/kg, female, mean, read-out: AUClast) of 1430 µg·h/mL. It also gave a Cmax ([1]; female, Sprague-Dawley, rat, plasma, po, 60 mg/kg, rat PO 60 mg/kg, female, mean, read-out: Cmax) of 113 µg/mL, a Tmax ([1]; female, Sprague-Dawley, rat, plasma, po, 60 mg/kg, rat PO 60 mg/kg, female, mean) of 4.67 h and an AUC(0-t) ([1]; female, Sprague-Dawley, rat, plasma, po, 60 mg/kg, rat, Female, PO/60 mg/kg, Mean ± SD, read-out: AUC0-24) of 1430 µg·h/mL. For the same compound, the Cmax ([1]; female, Sprague-Dawley, rat, plasma, po, 60 mg/kg, rat, Female, PO/60 mg/kg, Mean ± SD, read-out: Cmax) was 113 µg/mL, the Tmax ([1]; female, Sprague-Dawley, rat, plasma, po, 60 mg/kg, rat, Female, PO/60 mg/kg, Mean ± SD) was 4.7 ± 2.3 h and the AUC(0-t) ([1]; female, Sprague-Dawley, rat, plasma, po, 200 mg/kg, rat PO 200 mg/kg, female, mean, read-out: AUClast) was 2850 µg·h/mL. The Cmax ([1]; female, Sprague-Dawley, rat, plasma, po, 200 mg/kg, rat PO 200 mg/kg, female, mean, read-out: Cmax) was 206 µg/mL, the Tmax ([1]; female, Sprague-Dawley, rat, plasma, po, 200 mg/kg, rat PO 200 mg/kg, female, mean) was 4.67 h and the AUC(0-t) ([1]; female, Sprague-Dawley, rat, plasma, po, 200 mg/kg, rat, Female, PO/200 mg/kg, Mean ± SD, read-out: AUC0-24) was 2850 µg·h/mL. It also gave a Cmax ([1]; female, Sprague-Dawley, rat, plasma, po, 200 mg/kg, rat, Female, PO/200 mg/kg, Mean ± SD, read-out: Cmax) of 206 µg/mL, a Tmax ([1]; female, Sprague-Dawley, rat, plasma, po, 200 mg/kg, rat, Female, PO/200 mg/kg, Mean ± SD) of 4.7 ± 1.1 h and an AUC(0-t) ([1]; male, Sprague-Dawley, rat, plasma, po, 20 mg/kg, rat PO 20 mg/kg, male, mean, read-out: AUClast) of 167 µg·h/mL. For the same compound, the Cmax ([1]; male, Sprague-Dawley, rat, plasma, po, 20 mg/kg, rat PO 20 mg/kg, male, mean, read-out: Cmax) was 30.6 µg/mL, the Tmax ([1]; male, Sprague-Dawley, rat, plasma, po, 20 mg/kg, rat PO 20 mg/kg, male, mean) was 1 h and the AUC(0-t) ([1]; male, Sprague-Dawley, rat, plasma, po, 20 mg/kg, rat, Male, PO/20 mg/kg, Mean ± SD, read-out: AUC0-24) was 167 µg·h/mL. For the same compound, the Cmax ([1]; male, Sprague-Dawley, rat, plasma, po, 20 mg/kg, rat, Male, PO/20 mg/kg, Mean ± SD, read-out: Cmax) was 30.6 µg/mL, the Tmax ([1]; male, Sprague-Dawley, rat, plasma, po, 20 mg/kg, rat, Male, PO/20 mg/kg, Mean ± SD) was 1 h and the AUC(0-t) ([1]; male, Sprague-Dawley, rat, plasma, po, 60 mg/kg, rat PO 60 mg/kg, male, mean, read-out: AUClast) was 445 µg·h/mL. The Cmax ([1]; male, Sprague-Dawley, rat, plasma, po, 60 mg/kg, rat PO 60 mg/kg, male, mean, read-out: Cmax) was 56.5 µg/mL, the Tmax ([1]; male, Sprague-Dawley, rat, plasma, po, 60 mg/kg, rat PO 60 mg/kg, male, mean) was 2.67 h and the AUC(0-t) ([1]; male, Sprague-Dawley, rat, plasma, po, 60 mg/kg, rat, Male, PO/60 mg/kg, Mean ± SD, read-out: AUC0-24) was 445 µg·h/mL. For the same compound, the Cmax ([1]; male, Sprague-Dawley, rat, plasma, po, 60 mg/kg, rat, Male, PO/60 mg/kg, Mean ± SD, read-out: Cmax) was 56.5 µg/mL, the Tmax ([1]; male, Sprague-Dawley, rat, plasma, po, 60 mg/kg, rat, Male, PO/60 mg/kg, Mean ± SD) was 2.7 ± 1.2 h and the AUC(0-t) ([1]; male, Sprague-Dawley, rat, plasma, po, 200 mg/kg, rat PO 200 mg/kg, male, mean, read-out: AUClast) was 1100 µg·h/mL. For the same compound, the Cmax ([1]; male, Sprague-Dawley, rat, plasma, po, 200 mg/kg, rat PO 200 mg/kg, male, mean, read-out: Cmax) was 115 µg/mL, the Tmax ([1]; male, Sprague-Dawley, rat, plasma, po, 200 mg/kg, rat PO 200 mg/kg, male, mean) was 4 h and the AUC(0-t) ([1]; male, Sprague-Dawley, rat, plasma, po, 200 mg/kg, rat, Male, PO/200 mg/kg, Mean ± SD, read-out: AUC0-24) was 1100 µg·h/mL. The Cmax ([1]; male, Sprague-Dawley, rat, plasma, po, 200 mg/kg, rat, Male, PO/200 mg/kg, Mean ± SD, read-out: Cmax) was 115 µg/mL, the Tmax ([1]; male, Sprague-Dawley, rat, plasma, po, 200 mg/kg, rat, Male, PO/200 mg/kg, Mean ± SD) was 4 ± 2 h and the AUClast/D ([1]; rat PO 20 mg/kg, female, mean) was 44231. For the same compound, the “AUC—% Extrap—obs” value ([1]; rat PO 20 mg/kg, female, mean) was 9.9%, the Cmax ([1]; rat PO 20 mg/kg, female, mean, listed as Free Acid, 20 mg/kg) was 78.833 µg/mL and the “AUC—% Extrap—obs” value ([1]; rat PO 20 mg/kg, male, mean) was 0.61%. For the same compound, the AUClast/D ([1]; rat PO 60 mg/kg, female, mean) was 23759, the “AUC—% Extrap—obs” value ([1]; rat PO 60 mg/kg, female, mean) was 16.7% and the AUClast/D ([1]; rat PO 60 mg/kg, male, mean) was 7419. For the same compound, the “AUC—% Extrap—obs” value ([1]; rat PO 60 mg/kg, male, mean) was 0.477%, the AUClast/D ([1]; rat PO 200 mg/kg, female, mean) was 14265 and the “AUC—% Extrap—obs” value ([1]; rat PO 200 mg/kg, female, mean) was 22.1%. For the same compound, the AUClast/D ([1]; rat PO 200 mg/kg, male, mean) was 5525, the “AUC—% Extrap—obs” value ([1]; rat PO 200 mg/kg, male, mean) was 0.704% and the Clinical symptoms ([1]; rats, single oral gavage dose) was “No abnormal clinical symptoms were observed”. The NOAEL at 28 days ([2]; male rats, 28 days oral gavage, read-out: NOAEL) was 120 mg/kg/day, the AUC(0-t) ([2]; po, female rats, 75 mg/kg/day) was 3230 µg·h/mL and the Cmax ([2]; po, female rats, 75 mg/kg/day) was 198 µg/mL. The AUC(0-t) ([2]; po, male rats, 120 mg/kg/day) was 2780 µg·h/mL, the Cmax ([2]; po, male rats, 120 mg/kg/day) was 180 µg/mL and the NOAEL at 28 days ([2]; female, po) was 75 mg/kg/day. The NOAEL at 28 days (in vivo) was 150 mg/kg/day.
